Test results reported in paper PMC3252880, “Synthesis of 2-amino-3-arylpropan-1-ols and 1-(2,3-diaminopropyl)-1,2,3-triazoles and evaluation of their antimalarial activity” (Beilstein Journal of Organic Chemistry, 2011).
pIC50: −log10 of the molar value. Values joined by “and” are separate entries in the source; they are usually repeats but may differ in a detail not shown here. Equal entries are not always repeated. Where two headings read alike, the source gives them in different places.

Key:
[1] = tested on: chloroquine-sensitive (CQS) strain of P. falciparum (D10); experiment: in vitro antiplasmodial activity, chloroquine-sensitive strain D10; assay type: cell-based, Plasmodium falciparum; conditions: for pIC50: tested in triplicate on one occasion, hydrophobic samples added as suspension; for antiplasmodial activity (in words): in vitro, P. falciparum
Experimental: All samples were tested in triplicate on one occasion against a chloroquine-sensitive (CQS) strain of P. falciparum (D10). […] The antiplasmodial and cytotoxicity assays were performed as described previously.

[2] = tested on: chloroquine-resistant (CQR) strain of P. falciparum (Dd2); experiment: in vitro antiplasmodial activity, chloroquine-resistant strain Dd2; assay type: cell-based, Plasmodium falciparum; conditions: for RI (Resistance Index) = IC50 Dd2/IC50 D10: ratio Dd2/D10
[3] = tested on: Chinese hamster ovary (CHO) cell-line; experiment: in vitro cytotoxicity against CHO cell-line; assay type: cell-based; conditions: for pIC50: read-out: CHO: IC50; for SI (Selectivity Index) = IC50 CHO/IC50 D10: ratio CHO/D10
Experimental: At first, compounds 6a–c, 8a–e, 9a–d, 12a,b, 14a–e, 15a–f and 16a–g were screened for in vitro antiplasmodial activity. All samples were tested in triplicate on one occasion against a chloroquine-sensitive (CQS) strain of P. falciparum (D10). Those samples showing antiplasmodial activity were then tested in triplicate on one occasion against a chloroquine-resistant (CQR) strain of P. falciparum (Dd2) and screened for in vitro cytotoxicity against a Chinese hamster ovary (CHO) cell-line, in triplicate on one occasion. The antiplasmodial and cytotoxicity assays were performed as described previously.

P. falciparum = tested on: P. falciparum; parameters: method as in PMID 17194200, PMID 14500986; conditions: cited from earlier work
P. berghei = tested on: P. berghei; parameters: method as in PMID 17194200, PMID 14500986; conditions: in vivo; cited from earlier work
[4] = CQS strain D10, read-out: D10: IC50
[5] = CQR strain Dd2, tested in triplicate on one occasion, read-out: Dd2: IC50
[6] = CHO cell-line, in triplicate on one occasion
[7] = Plasmodium falciparum, DD2, read-out: Dd2: IC50
[8] = Plasmodium falciparum, D10, CQS strain D10, read-out: D10: IC50
[9] = Plasmodium falciparum, D10, read-out: D10: IC50, CQS strain D10
[10] = read-out: D10: IC50, CQS strain D10
[11] = Plasmodium falciparum, CQR strain Dd2, tested in triplicate on one occasion, read-out: Dd2: IC50
[12] = Cricetulus griseus, CHO cell-line, in triplicate on one occasion

COC(c1ccccc1)C(CO)NC(C)C (racemic) [Compound 8a]
pIC50 [1, 4]: 3.43

COC(c1ccccc1)C(CO)NCc1ccccc1 (racemic) [Compound 8b]
pIC50 [1, 4]: 3.84

COC(c1ccc(Cl)cc1)C(CO)NCc1ccccc1 (racemic) [Compound 8c]
pIC50 [1, 4]: 3.70

COc1ccc(C(OC)C(CO)NCC(C)C)cc1 (racemic) [Compound 8d]
pIC50 [1, 4]: 4.41
pIC50 [2, 5]: 4.59
RI (Resistance Index) = IC50 Dd2/IC50 D10 [2]: 0.7
pIC50 [3, 6]: < 3.28

CCCNC(CO)C(OC)c1ccccc1F (racemic) [Compound 8e]
pIC50 [1, 4]: 4.41
pIC50 [2, 5]: 4.66
RI (Resistance Index) = IC50 Dd2/IC50 D10 [2]: 0.6
pIC50 [3, 6]: < 3.28

OCC(NCc1ccccc1)C(O)c1ccccc1Cl (racemic) [Compound 9b]
pIC50 [1, 4]: ≥ 4.60 and 4.67
pIC50 [2, 5]: 4.87
RI (Resistance Index) = IC50 Dd2/IC50 D10 [2]: 0.6
pIC50 [3, 6]: < 3.28

Cc1ccc(C(O)C(CO)NCc2ccccc2)cc1 (racemic) [Compound 9c]
pIC50 [1, 4]: 3.89

OCC(NCc1ccc(Cl)cc1)C(O)c1ccccc1 (racemic) [Compound 9d]
pIC50 [1, 4]: 4.09

CCN(CC)CCCC(C)Nc1ccnc2cc(Cl)ccc12 (centres unmarked) [CQ, reference compound]
IC50 ([1]; Plasmodium falciparum, D10, read-out: D10: IC50, CQS strain D10, n = 6 data sets averaged): 0.0191 µg/mL
IC50 [2, 7]: 0.0756 µg/mL
RI (Resistance Index) = IC50 Dd2/IC50 D10 [2]: 3.9

OCC(Cc1ccc(Cl)cc1)NCc1ccccc1 (centres unmarked) [Compound 6a]
pIC50 [1, 4]: ≥ 4.60 and 4.90
pIC50 [2, 5]: 4.96
RI (Resistance Index) = IC50 Dd2/IC50 D10 [2]: 0.9
pIC50 [3, 6]: 3.86
SI (Selectivity Index) = IC50 CHO/IC50 D10 [3]: 11

COc1ccc(CC(CO)NCC(C)C)cc1 (centres unmarked) [Compound 6b]
pIC50 [1, 4]: 3.55

CCCNC(CO)Cc1ccccc1F (centres unmarked) [Compound 6c]
pIC50 [1, 4]: 3.66

OCC(NCc1ccccc1)C(O)c1ccc(Cl)cc1 (stereo not drawn) [Compound 9a, anti-2-(N-Benzylamino)-1-(4-chlorophenyl)propan-1,3-diol]
pIC50 [1, 4]: ≥ 4.60 and 4.60
pIC50 [2, 5]: 5.07
RI (Resistance Index) = IC50 Dd2/IC50 D10 [2]: 0.3
pIC50 [3, 6]: < 3.28

COc1ccccc1[C@@H](O)[C@@H](CO)NC(C)(C)C [Compound 12a, syn-2-(N-tert-Butylamino)-1-(2-methoxyphenyl)propan-1,3-diol]
pIC50 [1, 8]: 4.01
melting point: 112.8 °C

CC(C)(C)N[C@H](CO)[C@H](O)c1ccccc1F [Compound 12b]
pIC50 [1, 8]: 4.22

[N-]=[N+]=NCC1CN1Cc1ccccc1 (centres unmarked) [Compound 14a, 2-Azidomethyl-1-(phenylmethyl)aziridine]
pIC50 [1, 9]: 3.64
pIC50 [2, 7]: 3.33
RI (Resistance Index) = IC50 Dd2/IC50 D10 [2]: 2
pIC50 ([3]; Cricetulus griseus, CHO): < 3.28

[N-]=[N+]=NCC1CN1Cc1ccc(Cl)cc1 (centres unmarked) [Compound 14b]
pIC50 [1, 4]: 4.00

COc1ccc(CN2CC2CN=[N+]=[N-])cc1 (centres unmarked) [Compound 14c]
pIC50 [1, 4]: 3.79

[N-]=[N+]=NCC1CN1Cc1ccccc1Cl (centres unmarked) [Compound 14d]
pIC50 [1, 4]: 4.03

[N-]=[N+]=NCC1CN1Cc1cccc(Cl)c1 (centres unmarked) [Compound 14e]
pIC50 [1, 4]: 3.75

c1ccc(CN2CC2Cn2cc(-c3ccccc3)nn2)cc1 (centres unmarked) [Compound 15a, 1-Phenylmethyl-2-[(4-phenyl-1,2,3-triazol-1-yl)methyl]aziridine]
pIC50 [1, 9]: 4.46
pIC50 [2, 7]: 3.97
RI (Resistance Index) = IC50 Dd2/IC50 D10 [2]: 3.1
pIC50 ([3]; Cricetulus griseus, CHO): < 3.28

Clc1ccc(CN2CC2Cn2cc(-c3ccccc3)nn2)cc1 (centres unmarked) [Compound 15b]
pIC50 [1, 4]: 4.38

COc1ccc(CN2CC2Cn2cc(-c3ccccc3)nn2)cc1 (centres unmarked) [Compound 15c]
pIC50 [1, 9]: ≥ 4.60
antiplasmodial activity (in words) [1]: weak antiplasmodial activity
pIC50 [1, 10]: 4.59
pIC50 [2, 7]: 4.25
RI (Resistance Index) = IC50 Dd2/IC50 D10 [2]: 2.2
pIC50 ([3]; Cricetulus griseus, CHO): < 3.28

Cc1ccc(-c2cn(CC3CN3Cc3ccccc3)nn2)cc1 (centres unmarked) [Compound 15d]
pIC50 [1, 9]: ≥ 4.60
antiplasmodial activity (in words) [1]: weak antiplasmodial activity
pIC50 [1, 10]: 4.69
pIC50 [2, 7]: 4.68
RI (Resistance Index) = IC50 Dd2/IC50 D10 [2]: 1
pIC50 ([3]; Cricetulus griseus, CHO): < 3.28

COc1ccc(-c2cn(CC3CN3Cc3ccccc3)nn2)cc1 (centres unmarked) [Compound 15e]
pIC50 [1, 9]: 4.39

CCN(CC)CC(Cn1cc(-c2ccccc2)nn1)NCc1ccccc1 (centres unmarked) [Compound 16a, 3-Diethylamino-2-(phenylmethyl)amino-1-(4-phenyl-1,2,3-triazol-1-yl)propane]
pIC50 [1, 4]: 4.66
pIC50 [1, 8]: ≥ 4.60
pIC50 [2, 11]: 3.64
RI (Resistance Index) = IC50 Dd2/IC50 D10 [2]: 10.5
pIC50 [3, 12]: < 3.28

CCN(CC)CC(Cn1cc(-c2ccccc2)nn1)NCc1ccc(Cl)cc1 (centres unmarked) [Compound 16b]
pIC50 [1, 4]: ≥ 4.60 and 4.59
pIC50 [2, 5]: 3.75
RI (Resistance Index) = IC50 Dd2/IC50 D10 [2]: 6.8
pIC50 [3, 6]: < 3.28

CCN(CC)CC(Cn1cc(-c2ccccc2)nn1)NCc1ccc(OC)cc1 (centres unmarked) [Compound 16c]
pIC50 [1, 4]: 3.86

CCN(CC)CC(Cn1cc(-c2ccc(C)cc2)nn1)NCc1ccccc1 (centres unmarked) [Compound 16d]
pIC50 [1, 4]: 4.49

CCN(CC)CC(Cn1cc(-c2ccc(OC)cc2)nn1)NCc1ccccc1 (centres unmarked) [Compound 16e]
pIC50 [1, 8]: 3.77

CN(C)CC(Cn1cc(-c2ccccc2)nn1)NCc1ccccc1Cl (centres unmarked) [Compound 16f]
pIC50 [2, 11]: 4.89
RI (Resistance Index) = IC50 Dd2/IC50 D10 [2]: 1.2
pIC50 [3, 12]: 3.74
SI (Selectivity Index) = IC50 CHO/IC50 D10 [3]: 16.1

CN(C)CC(Cn1cc(-c2ccccc2)nn1)NCc1ccccc1 (centres unmarked) [Compound 16g]
pIC50 [1, 4]: 4.16

CC[C@H]1CN2CCc3cc(OC)c(OC)cc3[C@@H]2C[C@@H]1C[C@H]1NCCc2cc(OC)c(OC)cc21 [Emetine, reference compound]
pIC50 [3, 12]: 6.57

CC(C)NCC(O)COc1cccc2ccccc12 (centres unmarked) [propranolol]
infection of erythrocytes by P. falciparum (P. falciparum): inhibit infection of erythrocytes
parasitaemia of P. berghei infections (P. berghei): reduce the parasitaemia
